Activity calls are given as the source filed them. The rule behind the calls is not given here.
Columns and labels:
Mus musculus [1] = experiment: Concentration causing local anesthetic activity in mice; format: functional, organism-based
Canis familiaris = organism: Canis familiaris; experiment: Percent inhibition of calcium-dependent potassium-polarized smooth muscle contraction in canine trachea; format: functional, Canis lupus familiaris, Muscle tissue
[2] = biological target: T1, Voltage-dependent L-type calcium channel subunit alpha-1C (Oryctolagus cuniculus, UniProt P15381); experiment: Inhibition of [3H]nitrendipine binding to calcium channels in Rabbit cardiac muscle.; format: tissue-based, Muscle tissue
Mus musculus [3] = experiment: Concentration causing local anesthetic activity in mice; inactive; format: functional, organism-based
[4] = Inhibition of [3H]nitrendipine binding to calcium channels of rabbit cardiac muscle at 68 uM; format: functional; settings: Oryctolagus cuniculus, Muscle tissue
[5] = biological target: T1, Voltage-dependent L-type calcium channel subunit alpha-1C; experiment: Inhibition of [3H]nitrendipine binding to calcium channels of rabbit cardiac muscle at 10 uM; format: functional, tissue-based, Muscle tissue; settings: probe [3H]nitrendipine

T1 sequence (P15381 whole entry): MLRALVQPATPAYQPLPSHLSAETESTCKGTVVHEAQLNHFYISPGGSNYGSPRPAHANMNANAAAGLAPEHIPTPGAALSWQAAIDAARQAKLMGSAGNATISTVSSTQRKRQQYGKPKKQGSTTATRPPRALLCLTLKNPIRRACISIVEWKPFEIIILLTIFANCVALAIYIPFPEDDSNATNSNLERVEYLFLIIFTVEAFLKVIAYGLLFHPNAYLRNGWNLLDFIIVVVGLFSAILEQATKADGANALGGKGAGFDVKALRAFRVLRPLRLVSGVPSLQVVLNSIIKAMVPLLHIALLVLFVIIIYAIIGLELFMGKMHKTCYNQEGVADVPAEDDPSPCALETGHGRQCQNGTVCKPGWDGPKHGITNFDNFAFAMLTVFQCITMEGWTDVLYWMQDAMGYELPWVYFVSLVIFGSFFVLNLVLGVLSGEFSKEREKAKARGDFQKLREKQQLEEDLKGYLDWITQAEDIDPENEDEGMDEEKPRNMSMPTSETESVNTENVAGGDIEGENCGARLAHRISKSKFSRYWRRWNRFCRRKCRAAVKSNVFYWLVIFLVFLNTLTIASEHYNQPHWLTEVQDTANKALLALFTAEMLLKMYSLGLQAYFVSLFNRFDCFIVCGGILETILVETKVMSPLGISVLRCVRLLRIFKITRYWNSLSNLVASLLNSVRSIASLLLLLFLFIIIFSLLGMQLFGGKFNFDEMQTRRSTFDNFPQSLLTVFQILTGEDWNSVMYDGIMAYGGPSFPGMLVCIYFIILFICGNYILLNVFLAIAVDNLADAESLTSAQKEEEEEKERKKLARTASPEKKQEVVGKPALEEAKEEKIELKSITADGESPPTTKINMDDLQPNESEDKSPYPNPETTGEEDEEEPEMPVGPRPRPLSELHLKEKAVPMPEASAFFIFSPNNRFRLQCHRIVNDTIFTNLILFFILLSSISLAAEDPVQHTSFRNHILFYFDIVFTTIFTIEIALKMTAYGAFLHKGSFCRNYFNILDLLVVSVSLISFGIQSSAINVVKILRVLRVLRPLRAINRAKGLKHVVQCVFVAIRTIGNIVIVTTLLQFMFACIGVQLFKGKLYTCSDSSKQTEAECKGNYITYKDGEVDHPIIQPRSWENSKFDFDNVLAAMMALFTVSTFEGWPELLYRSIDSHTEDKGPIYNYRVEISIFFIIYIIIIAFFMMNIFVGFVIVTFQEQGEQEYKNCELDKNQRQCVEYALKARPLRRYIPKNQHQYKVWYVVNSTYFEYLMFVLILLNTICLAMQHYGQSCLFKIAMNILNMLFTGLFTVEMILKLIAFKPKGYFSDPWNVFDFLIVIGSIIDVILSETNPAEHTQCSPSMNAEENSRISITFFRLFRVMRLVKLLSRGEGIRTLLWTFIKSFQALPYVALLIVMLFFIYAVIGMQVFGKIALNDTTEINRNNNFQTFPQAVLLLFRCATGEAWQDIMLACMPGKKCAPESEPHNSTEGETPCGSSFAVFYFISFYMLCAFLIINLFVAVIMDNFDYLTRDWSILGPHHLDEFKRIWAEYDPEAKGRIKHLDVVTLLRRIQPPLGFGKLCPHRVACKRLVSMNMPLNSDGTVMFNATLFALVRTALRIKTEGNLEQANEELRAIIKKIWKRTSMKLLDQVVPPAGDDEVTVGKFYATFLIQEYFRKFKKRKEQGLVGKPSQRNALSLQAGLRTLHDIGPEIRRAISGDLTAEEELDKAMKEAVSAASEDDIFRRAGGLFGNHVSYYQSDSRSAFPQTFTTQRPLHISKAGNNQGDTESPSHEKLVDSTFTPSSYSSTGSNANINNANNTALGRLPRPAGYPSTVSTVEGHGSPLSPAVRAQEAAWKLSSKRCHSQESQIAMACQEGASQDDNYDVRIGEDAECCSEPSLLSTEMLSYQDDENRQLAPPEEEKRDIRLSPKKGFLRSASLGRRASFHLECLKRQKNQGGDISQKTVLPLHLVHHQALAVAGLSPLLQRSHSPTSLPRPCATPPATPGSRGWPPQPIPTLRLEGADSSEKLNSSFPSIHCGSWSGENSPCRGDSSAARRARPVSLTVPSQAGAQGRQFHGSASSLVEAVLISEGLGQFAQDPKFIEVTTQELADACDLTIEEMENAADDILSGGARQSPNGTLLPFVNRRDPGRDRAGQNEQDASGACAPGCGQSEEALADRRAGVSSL

| SMILES | Concentration (Mus musculus [1]) [%] | further results |
| --- | --- | --- |
| CCCN(CCC)CCCOc1ccc(-c2cn3cccc(C)c3n2)cc1 | 0.1 |  |
| CCCCN(CCCC)CCCOc1ccc(-c2cn3c(n2)sc2ccccc23)cc1.Cl.Cl | 1 | Inhibition (Canis familiaris): 15% |
| CCCCN(CCCC)CCCOc1ccc(-c2cn3cccc([N+](=O)[O-])c3n2)cc1 | > 1 |  |
| CCCCN(CCCC)CCCOc1ccc(-c2cn3cccc(O)c3n2)cc1 | 0.1 |  |
| CCCCN(CCCC)CCCOc1ccc(-c2cn3cccc(C)c3n2)cc1OC | 0.01 |  |
| CCCCN(CCCC)CCCOc1ccc(-c2cn3cccc(C)c3n2)cc1C | 0.1 |  |
| CCCCN(CCCC)CCCOc1ccc(C(=O)c2cnc3nc(C)ccn23)cc1 |  | IC50 [2]: 6.1 µM; Concentration (Mus musculus [3]): inactive |
| CCCCN(CCCC)CCCOc1ccc(C(=O)c2cn3ccc(C)cc3n2)cc1 | 1 |  |
| CCCCN(CCCC)CCCOc1ccc(-c2cn3ccc(C)nc3n2)cc1 |  | Concentration (Mus musculus [3]): inactive |
| Cc1cccn2cc(-c3ccc(OCCCN4CCOCC4)cc3)nc12 | > 1 |  |
| CCCCN(CCCC)CCCOc1ccc(-c2cn3cccc(C)c3n2)c(C)c1 | 0.1 |  |
| CCCCN(CCCC)CCCOc1ccc(-c2cn3cccnc3n2)cc1 | > 1 | inhibition at 68 µM [4]: 43% |
| CCCCCN(CCCCC)CCCOc1ccc(-c2cn3cccc(C)c3n2)cc1 | 0.1 |  |
| CCCCN(CCCC)CCCOc1ccc(C(=O)c2cnc3ncccn23)cc1.Cl.Cl |  | Inhibition (Canis familiaris): 44%; Concentration (Mus musculus [3]): inactive |
| CCCCN(CCCC)CCCOc1ccc(C(=O)c2cnc3c(C)cccn23)cc1 | 0.1 | IC50 [2]: 0.5 µM |
| CCCCN(CCCC)CCCOc1ccc(-c2cn3ccc(C)cc3n2)cc1 | 0.1 |  |
| CCCCN(CCCC)CCCOc1ccc(-c2nc3sccn3c2C)cc1 | 0.1 |  |
| CCCCN(CCCC)CCCOc1ccc(-c2cn3cc(Br)ccc3n2)cc1 | 1 |  |
| CC(C)COCC(CN(Cc1ccccc1)c1ccccc1)N1CCCC1 (stereo not drawn) [BEPRIDIL] |  | IC50 [2]: 22 µM; Inhibition (Canis familiaris): 81% |
| COc1ccc([C@@H]2Sc3ccccc3N(CCN(C)C)C(=O)[C@@H]2OC(C)=O)cc1 [DILTIAZEM] |  | Inhibition (Canis familiaris): 96% |

| SMILES | Concentration (Mus musculus [1]) [%] | further results |
| --- | --- | --- |
| CCCCN(CCCC)CCCOc1ccc(C(=O)c2cn3cccc(C)c3n2)cc1 | 1 | IC50 [2]: 6 µM |
| CCCCN(CCCC)CCCOc1ccc(-c2nc3c(C)cccn3c2C)cc1 | 0.1 |  |
| CCCCN(CCCC)CCCOc1ccc(C(=O)c2cn3cc(Br)ccc3n2)cc1.Cl.Cl | 1 | Inhibition (Canis familiaris): 50% |
| CCCCN(CCCC)CCCOc1ccc(-c2cn3cccc(C)c3n2)cc1 | 0.01 |  |
| CCCCN(CCCC)CCCOc1ccc(-c2cn3cc(C)ccc3n2)cc1 | 0.1 |  |
| CCCCN(CCCC)CCCOc1c(OC)cc(-c2cn3cccc(C)c3n2)cc1OC | 0.1 |  |
| COC(=O)C1=C(C)NC(C)=C(C(=O)OC)C1c1ccccc1[N+](=O)[O-] [NIFEDIPINE] | > 1 | Inhibition (Canis familiaris): 95% |
| CCN(CC)CC(=O)Nc1c(C)cccc1C | 1 |  |
| Cc1cccn2cc(-c3ccc(OCCCN4CCCCC4)cc3)nc12 | 1 |  |
| CCCCN(CCCC)CCCOc1ccc(-c2cn3nc(C)sc3n2)cc1 |  | Concentration (Mus musculus [3]): inactive |
| Cc1cccn2cc(-c3ccc(OCCCn4ccnc4)cc3)nc12 | > 1 |  |
| COc1ccc(CCN(C)CCCC(C#N)(c2ccc(OC)c(OC)c2)C(C)C)cc1OC (stereo not drawn) | 1 | Inhibition (Canis familiaris): 93% |
| CCCCN(CCCC)CCCOc1ccc(-c2cn3nccnc3n2)cc1.Cl.Cl |  | Inhibition (Canis familiaris): 46%; Concentration (Mus musculus [3]): inactive |
| CCCCN(CCCC)CCCOc1ccc(-c2cn3ccsc3n2)cc1 | > 1 |  |
| Cc1cccn2cc(-c3ccc(OCCCN(C)C)cc3)nc12 | 1 |  |
| CCCCN(CCCC)CCCOc1ccc(-c2cn3cccc(OCc4ccccc4)c3n2)cc1 | 0.1 | inhibition at 10 µM [5]: 45% |
| CCCCN(CCCC)CCCOc1ccc(-c2cn3c(C)cccc3n2)cc1 | 0.1 |  |
| CCCCN(CCCC)CCCCOc1ccc(-c2cn3cccc(C)c3n2)cc1 | 1 |  |
| CCCCN(CCCC)CCCOc1ccc(C(=O)c2cnc3ccc(Br)cn23)cc1 | 0.1 |  |
| CCCCN(CCCC)CCCOc1ccc(-c2cn3ccccc3n2)cc1.Cl | 0.1 | Inhibition (Canis familiaris): 5.4% |

Reference: ChEMBL document CHEMBL1124014, “Synthesis of (aryloxy)alkylamines. 2. Novel imidazo-fused heterocycles with calcium channel blocking and local anesthetic activity” (J Med Chem, 1988)
